The values below come from ChEMBL document CHEMBL1145754, “Design and synthesis of statine-containing BACE inhibitors” (Bioorg Med Chem Lett, 2003).

Non-standard residues stand in square brackets, D forms with d. Residues, ends and D or L forms follow the SMILES beside them. *: point of attachment. Sta = CC(C)C[C@H](N)[C@@H](O)CC(=O)O; 3Amb = NCc1cccc(C(=O)O)c1; Nle = CCCC[C@H](N)C(=O)O; Nva = CCC[C@H](N)C(=O)O; X1 = O=C(C1CCCCO1)*

The experiment concerns the target Beta-secretase 1 (Homo sapiens, UniProt P56817). In words: Inhibition of human beta-secretase.

Beta-secretase 1, sequence (P56817 whole entry): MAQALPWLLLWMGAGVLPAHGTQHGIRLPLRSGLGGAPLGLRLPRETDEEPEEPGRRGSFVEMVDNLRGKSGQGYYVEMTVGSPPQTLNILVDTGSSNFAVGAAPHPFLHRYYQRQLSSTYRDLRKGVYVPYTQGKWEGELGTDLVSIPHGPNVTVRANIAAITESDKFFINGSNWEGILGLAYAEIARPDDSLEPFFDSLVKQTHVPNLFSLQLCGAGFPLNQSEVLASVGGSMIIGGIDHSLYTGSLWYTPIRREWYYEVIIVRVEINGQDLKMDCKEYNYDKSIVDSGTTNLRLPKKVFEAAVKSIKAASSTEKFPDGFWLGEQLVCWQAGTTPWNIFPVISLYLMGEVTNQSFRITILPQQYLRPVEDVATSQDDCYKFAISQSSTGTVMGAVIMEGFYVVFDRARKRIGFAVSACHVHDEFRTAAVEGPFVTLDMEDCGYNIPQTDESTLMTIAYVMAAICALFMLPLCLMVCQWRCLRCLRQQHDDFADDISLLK

With `CC(C)C[C@H](NC(=O)[C@H](C)NC(=O)[C@@H](NC(=O)[C@@H](N)CCC(=O)O)C(C)C)[C@@H](O)CC(=O)N[C@H](C(=O)N[C@@H](C)C(=O)N[C@@H](CCC(=O)O)C(=O)N[C@@H](Cc1ccccc1)C(=O)O)C(C)C` (H-EVA[Sta]VAEF-OH), the IC50 worked out at 0.11 µM.
The figure for `CCC[C@H](NC(=O)C[C@H](O)[C@H](CC(C)C)NC(=O)[C@H](CCSC)NC(=O)[C@@H](NC(C)=O)[C@@H](C)CC)C(=O)NCc1cccc(C(=O)O)c1` (Ac-IM[Sta][Nva][3Amb]-OH) is 0.13 µM; for `CCCC[C@H](NC(C)=O)C(=O)N[C@@H](C)C(=O)N[C@@H](CC(C)C)[C@@H](O)CC(=O)N[C@H](C(=O)NCc1cccc(C(=O)O)c1)C(C)C` (Ac-[Nle]A[Sta]V[3Amb]-OH) it is 1.4 µM.
With `CCCC[C@H](NC(=O)C[C@H](O)[C@H](CC(C)C)NC(=O)[C@H](C)NC(=O)[C@@H](NC(C)=O)[C@@H](C)CC)C(=O)NCc1cccc(C(=O)O)c1` (Ac-IA[Sta][Nle][3Amb]-OH), inhibition was half-maximal at 0.18 µM (IC50).
`CSCC[C@H](NC(=O)[C@H](CC(C)C)NC(C)=O)C(=O)N[C@@H](CC(C)C)[C@@H](O)CC(=O)N[C@@H](C(=O)NCc1cccc(C(=O)O)c1)C(C)C` returned an IC50 above 91 µM.
In the case of `CC(C)C[C@H](NC(=O)[C@H](CC(N)=O)NC(=O)[C@@H](NC(=O)[C@@H](N)CCC(=O)O)C(C)C)[C@@H](O)CC(=O)N[C@H](C(=O)N[C@@H](C)C(N)=O)C(C)C` (H-EVN[Sta]VA-NH2) it was 0.53 µM.
The figure for `CC[C@H](C)[C@H](NC(C)=O)C(=O)N[C@@H](C)C(=O)N[C@@H](CC(C)C)[C@@H](O)CC(=O)N[C@@H](CC(C)C)C(=O)NCc1cccc(C(=O)O)c1` (Ac-IA[Sta]L[3Amb]-OH) is 0.26 µM.
For the compound `CC(C)C[C@H](NC(=O)[C@H](CC(N)=O)NC(=O)[C@@H](NC(=O)[C@@H](N)CCC(=O)O)C(C)C)[C@@H](O)CC(=O)N[C@H](C(=O)N[C@@H](C)C(=O)N[C@@H](CCC(=O)O)C(=O)N[C@@H](Cc1ccccc1)C(=O)O)C(C)C` (H-EVN[Sta]VAEF-OH), the IC50 is 0.046 µM.
`CC[C@H](C)[C@H](NC(C)=O)C(=O)N[C@@H](C)C(=O)N[C@@H](CC(C)C)[C@@H](O)CC(=O)N[C@@H](Cc1ccc(O)cc1)C(=O)NCc1cccc(C(=O)O)c1` (Ac-IA[Sta]Y[3Amb]-OH) had an IC50 of 0.11 µM.
The compound `CC(=O)N[C@@H](CC(C)C)C(=O)N[C@H](C)C(=O)N[C@@H](CC(C)C)[C@@H](O)CC(=O)N[C@H](C(=O)NCc1cccc(C(=O)O)c1)C(C)C` displayed an IC50 above 91 µM.
Regarding `CSCC[C@H](NC(=O)[C@H](CC(C)C)NC(C)=O)C(=O)N[C@@H](CC(C)C)[C@@H](O)CC(=O)N[C@H](C(=O)NCc1cccc(C(=O)O)c1)C(C)C`, the IC50 is 0.89 µM.
Compound `CC(=O)N[C@H](C(=O)N[C@@H](C)C(=O)N[C@@H](CC(C)C)[C@@H](O)CC(=O)N[C@H](C(=O)NCc1cccc(C(=O)O)c1)C(C)C)C(C)C` (Ac-VA[Sta]V[3Amb]-OH) yielded an IC50 of 3.8 µM.
With `CC[C@H](C)[C@H](NC(C)=O)C(=O)N[C@@H](CCSC)C(=O)N[C@@H](CC(C)C)[C@@H](O)CC(=O)N[C@@H](Cc1ccccc1)C(=O)NCc1cccc(C(=O)O)c1` (Ac-IM[Sta]F[3Amb]-OH), the IC50 was determined as 0.14 µM.
As to `CC[C@H](C)[C@H](NC(=O)C1CCCCO1)C(=O)N[C@@H](C)C(=O)N[C@@H](CC(C)C)[C@@H](O)CC(=O)N[C@H](C(=O)NCc1cccc(C(=O)O)c1)C(C)C` (stereo not given in full) (X1-IA[Sta]V[3Amb]-OH), inhibition was half-maximal at 0.069 µM (IC50).
In the case of `CCCC[C@H](NC(=O)C[C@H](O)[C@H](CC(C)C)NC(=O)[C@H](CCSC)NC(=O)[C@@H](NC(C)=O)[C@@H](C)CC)C(=O)NCc1cccc(C(=O)O)c1` (Ac-IM[Sta][Nle][3Amb]-OH), the midpoint of inhibition, the IC50, lay at 0.086 µM.
In turn, `CSCC[C@H](NC(=O)[C@@H](NC(=O)[C@@H](N)CCC(=O)O)C(C)C)C(=O)N[C@@H](CC(C)C)[C@@H](O)CC(=O)N[C@@H](CC(C)C)C(=O)N[C@@H](C)C(=O)N[C@@H](CCC(=O)O)C(=O)N[C@@H](Cc1ccccc1)C(=O)O` (H-EVM[Sta]LAEF-OH) yielded an IC50 of 0.14 µM.
In the case of `CSCC[C@@H](NC(=O)[C@H](CC(C)C)NC(C)=O)C(=O)N[C@@H](CC(C)C)[C@@H](O)CC(=O)N[C@H](C(=O)NCc1cccc(C(=O)O)c1)C(C)C`, the IC50 is above 91 µM.
Compound `CC[C@@H](C)[C@@H](NC(C)=O)C(=O)N[C@@H](C)C(=O)N[C@@H](CC(C)C)[C@@H](O)CC(=O)N[C@H](C(=O)NCc1cccc(C(=O)O)c1)C(C)C` registered an IC50 above 91 µM.
`CC[C@H](C)[C@H](NC(C)=O)C(=O)N[C@@H](C)C(=O)N[C@@H](CC(C)C)[C@@H](O)CC(=O)N[C@@H](Cc1ccccc1)C(=O)NCc1cccc(C(=O)O)c1` (Ac-IA[Sta]F[3Amb]-OH) had an IC50 of 0.25 µM.
The compound `CC(C)C[C@H](NC(=O)[C@H](CC(N)=O)NC(=O)[C@@H](NC(=O)[C@@H](N)CCC(=O)O)C(C)C)[C@@H](O)CC(=O)N[C@H](C(=O)N[C@@H](C)C(=O)N[C@@H](CCC(=O)O)C(N)=O)C(C)C` (H-EVN[Sta]VAE-NH2) returned an IC50 of 0.11 µM.
As to `CC(C)C[C@H](NC(=O)[C@H](CC(N)=O)NC(=O)[C@@H](NC(=O)[C@@H](N)CCC(=O)O)C(C)C)[C@@H](O)CC(N)=O` (H-EVN[Sta]-NH2), the IC50 is above 91 µM.
`CC[C@H](C)[C@H](NC(C)=O)C(=O)N[C@@H](CCSC)C(=O)N[C@@H](CC(C)C)[C@@H](O)CC(=O)N[C@@H](Cc1ccc(O)cc1)C(=O)NCc1cccc(C(=O)O)c1` (Ac-IM[Sta]Y[3Amb]-OH) gave an IC50 of 0.091 µM.
Consider `CC[C@H](C)[C@H](NC(=O)C[C@H](O)[C@H](CC(C)C)NC(=O)[C@H](CCSC)NC(=O)[C@@H](NC(=O)[C@@H](N)CCC(=O)O)C(C)C)C(=O)N[C@@H](C)C(=O)N[C@@H](CCC(=O)O)C(=O)N[C@@H](Cc1ccccc1)C(=O)O` (H-EVM[Sta]IAEF-OH), for which it took 0.22 µM to reach half-maximal inhibition (IC50).
With `CC(=O)N[C@@H](CC(C)C)C(=O)N[C@@H](C)C(=O)N[C@@H](CC(C)C)[C@@H](O)CC(=O)N[C@H](C(=O)NCc1cccc(C(=O)O)c1)C(C)C`, the IC50 was determined as 0.52 µM.
Regarding `CC(C)C[C@H](NC(=O)[C@H](CC(N)=O)NC(=O)[C@@H](NC(=O)[C@@H](N)CCC(=O)O)C(C)C)[C@@H](O)CC(=O)N[C@H](C(N)=O)C(C)C` (H-EVN[Sta]V-NH2), the midpoint of inhibition, the IC50, lay at 9.4 µM.
The compound `CC(C)C[C@H](NC(=O)[C@@H](N)CC(N)=O)[C@@H](O)CC(=O)N[C@H](C(=O)N[C@@H](C)C(=O)N[C@@H](CCC(=O)O)C(=O)N[C@@H](Cc1ccccc1)C(=O)O)C(C)C` (H-N[Sta]VAEF-OH) gave an IC50 above 91 µM.
In turn, `CSCC[C@H](NC(=O)[C@@H](NC(=O)[C@@H](N)CCC(=O)O)C(C)C)C(=O)N[C@@H](CC(C)C)[C@@H](O)CC(=O)N[C@H](C(=O)N[C@@H](C)C(=O)N[C@@H](CCC(=O)O)C(=O)N[C@@H](Cc1ccccc1)C(=O)O)C(C)C` (H-EVM[Sta]VAEF-OH) displayed an IC50 of 0.058 µM.
The compound `CCC[C@H](NC(C)=O)C(=O)N[C@@H](C)C(=O)N[C@@H](CC(C)C)[C@@H](O)CC(=O)N[C@H](C(=O)NCc1cccc(C(=O)O)c1)C(C)C` (Ac-[Nva]A[Sta]V[3Amb]-OH) showed an IC50 of 0.83 µM.
Regarding `CC(C)C[C@H](NC(=O)[C@H](CC(N)=O)NC(=O)[C@@H](N)C(C)C)[C@@H](O)CC(=O)N[C@H](C(=O)N[C@@H](C)C(=O)N[C@@H](CCC(=O)O)C(=O)N[C@@H](Cc1ccccc1)C(=O)O)C(C)C` (H-VN[Sta]VAEF-OH), the IC50 stood at 2 µM.
`CC[C@H](C)[C@H](NC(C)=O)C(=O)N[C@@H](C)C(=O)N[C@@H](CC(C)C)[C@@H](O)CC(=O)N[C@H](C(=O)NCc1cccc(C(=O)O)c1)C(C)C`: the IC50 was 0.25 µM.

In general, IC50 refers to the concentration needed to halve the response being measured. Low values mean higher potency, high ones lower potency.
